The values that follow are results of earlier work, collected in patent US20070197486A1, “Methods and systems for the delivery of corticosteroids” (Verus Pharmaceuticals, Inc., priority 2005, published 2007).

Read-outs that look alike come from different tables or passages of the source.

Regarding `CCCC1O[C@@H]2C[C@H]3[C@@H]4CCC5=CC(=O)C=C[C@]5(C)[C@H]4[C@@H](O)C[C@]3(C)[C@]2(C(=O)CO)O1` (stereo partly drawn) [budesonide, (R,S)-11β,16α,17,21-tetrahydroxypregna-1,4-diene-3,20-dione cyclic 16,17-acetal with butyraldehyde], the solubility entry by setting is: (in alcohols) “readily soluble”; (in water) “virtually insoluble”.
